Results published in patent US10047050B2, “3,4-di-substituted pyridine compound, methods of using and compositions comprising the same” (ARDEA BIOSCIENCES, INC., priority 2011, dated 2018).
Several values for one entry are separate records, joined by “and”; a condition that tells them apart may be missing. Equal entries are not always repeated.

System: serum uric acid
Test: Multi-dose Phase I clinical trial, serum uric acid (sUA), once daily for 10 days
Assay type: in vivo, human
Settings: for Absolute sUA concentration: individual subjects 4-12; for Absolute sUA concentration, Mean (4-10): mean of subjects 4-10
Source text: A Phase 1, Randomized, Double-Blind, Placebo-Controlled Study to Evaluate Safety, Tolerability, Pharmacokinetics and Preliminary Food Effect of Multiple Rising Doses of a URAT1 Inhibitor, in Healthy Adult Male Volunteers.
Fasted subjects receive oral doses of active or placebo, once daily, for 10 days, at the following doses:
36 subjects in 3 dose groups, 12 subjects/group, are randomized […] to receive active (9/group) or placebo ([…]). All study procedures are the same regardless of whether subject receives active or placebo. Total duration of subject participation, including screening period, is ˜2-4 weeks, and the total volume of blood collected from each subject during the entire study <500 mL, (less than typically collected during a volunteer blood donation).
5 mg, active and placebo, tablets packaged in 35 count HDPE bottles, stored at controlled room temperature (15-30° C.). Placebo tablets are designed to match the active tablets—identical size, form, taste, and color, and containing the same excipients. 1 mg doses were administered as oral solutions.
Subjects dosed in the morning of Days 1-10 with ˜240 mL of room temp water.
Urine, serum and plasma samples collected periodically
PD samples frozen (−20° C.) and stored; all samples from a given subject assayed in a single analytical run.

[1] = group 7, 1 mg once daily for 10 days, Time 192, mean of subjects 4-12
[2] = group 7, 1 mg once daily for 10 days, Time 216, mean of subjects 4-12
[3] = group 7, 1 mg once daily for 10 days, Time 222 (post dosing), mean of subjects 4-12
[4] = group 7, 1 mg once daily for 10 days, Time 228 (post dosing), mean of subjects 4-12
[5] = group 7, 1 mg once daily for 10 days, Time 240 (post dosing), mean of subjects 4-12
[6] = group 7, 1 mg once daily for 10 days, Time 246 (post dosing), mean of subjects 4-12
[7] = group 7, 1 mg once daily for 10 days, Time 252 (post dosing), mean of subjects 4-12
[8] = group 7, 1 mg once daily for 10 days, Time 264 (post dosing), mean of subjects 4-12
[9] = group 7, 1 mg once daily for 10 days, Time 270 (post dosing), mean of subjects 4-12
[10] = group 7, 1 mg once daily for 10 days, Time 288 (post dosing), mean of subjects 4-12
[11] = group 7, 1 mg once daily for 10 days, Time 312 (post dosing), mean of subjects 4-12

CC(C)(Sc1ccncc1-c1ccc(C#N)c2ccccc12)C(=O)O [2-((3-(4-cyanonaphthalen-1-yl)pyridin-4-yl)thio)-2-methylpropanoic acid]
Absolute sUA concentration, Mean (4-12) (group 7, 1 mg once daily for 10 days, Time 168, mean of subjects 4-12): 6.1 mg/dL | Absolute sUA concentration (group 7, 1 mg once daily for 10 days, Time 192): 4.6 mg/dL and 5.0 mg/dL and 4.9 mg/dL and 6.5 mg/dL and 6.1 mg/dL and 5.9 mg/dL and 5.6 mg/dL and 5.1 mg/dL and 5.5 mg/dL | % sUA change (from baseline), Mean (4-12) [1]: −11.4% | Absolute sUA concentration, Mean (4-12) [1]: 5.5 mg/dL | Absolute sUA concentration (group 7, 1 mg once daily for 10 days, Time 216): 4.7 mg/dL (2×) and 4.9 mg/dL (2×) and 6.1 mg/dL and 5.8 mg/dL and 5.3 mg/dL and 5.6 mg/dL and 5.9 mg/dL | % sUA change (from baseline), Mean (4-12) [2]: −13.6% | Absolute sUA concentration, Mean (4-12) [2]: 5.3 mg/dL | Absolute sUA concentration (group 7, 1 mg once daily for 10 days, Time 222 (post dosing)): 4.7 mg/dL and 5.2 mg/dL and 4.9 mg/dL and 6.3 mg/dL and 5.9 mg/dL and 5.8 mg/dL and 5.4 mg/dL and 5.0 mg/dL and 5.5 mg/dL | % sUA change (from baseline), Mean (4-12) [3]: −12.2% | Absolute sUA concentration, Mean (4-12) [3]: 5.4 mg/dL | Absolute sUA concentration (group 7, 1 mg once daily for 10 days, Time 228 (post dosing)): 4.3 mg/dL and 4.8 mg/dL (2×) and 4.9 mg/dL and 6.2 mg/dL and 5.6 mg/dL and 5.5 mg/dL and 5.3 mg/dL and 5.4 mg/dL | % sUA change (from baseline), Mean (4-12) [4]: −15.6% | Absolute sUA concentration, Mean (4-12) [4]: 5.2 mg/dL | Absolute sUA concentration (group 7, 1 mg once daily for 10 days, Time 240 (post dosing)): 4.8 mg/dL and 5.5 mg/dL and 5.3 mg/dL and 6.9 mg/dL and 6.2 mg/dL (2×) and 5.9 mg/dL and 5.2 mg/dL and 6.0 mg/dL | % sUA change (from baseline), Mean (4-12) [5]: −6.3% | Absolute sUA concentration, Mean (4-12) [5]: 5.8 mg/dL | Absolute sUA concentration (group 7, 1 mg once daily for 10 days, Time 246 (post dosing)): 4.4 mg/dL | % sUA change (from baseline), Mean (4-12) [6]: −13.2% | Absolute sUA concentration, Mean (4-12) [6]: 5.4 mg/dL | % sUA change (from baseline), Mean (4-12) [7]: −10.6% | Absolute sUA concentration, Mean (4-12) [7]: 5.5 mg/dL | % sUA change (from baseline), Mean (4-12) [8]: −10.3% | Absolute sUA concentration, Mean (4-12) [8]: 5.5 mg/dL | % sUA change (from baseline), Mean (4-12) [9]: −17.4% | Absolute sUA concentration, Mean (4-12) [9]: 5.1 mg/dL | % sUA change (from baseline), Mean (4-12) [10]: −19.8% | Absolute sUA concentration, Mean (4-12) [10]: 5.0 mg/dL | % sUA change (from baseline), Mean (4-12) [11]: −14.9% | Absolute sUA concentration, Mean (4-12) [11]: 5.3 mg/dL | % sUA change (from baseline), Mean (4-12) (group 8, 5 mg once daily for 10 days, Time 0, mean of active subjects): 0% | Absolute sUA concentration, Mean (4-10) (group 8, 5 mg once daily for 10 days, Time 0): 5.9 mg/dL | % sUA change (from baseline), Mean (4-12) (group 8, 5 mg once daily for 10 days, Time 6, mean of active subjects): −20.5% | Absolute sUA concentration, Mean (4-10) (group 8, 5 mg once daily for 10 days, Time 6): 4.7 mg/dL | % sUA change (from baseline), Mean (4-12) (group 8, 5 mg once daily for 10 days, Time 12, mean of active subjects): −25.6% | Absolute sUA concentration, Mean (4-10) (group 8, 5 mg once daily for 10 days, Time 12): 4.4 mg/dL | % sUA change (from baseline), Mean (4-12) (group 8, 5 mg once daily for 10 days, Time 24, mean of active subjects): −21.1% | Absolute sUA concentration, Mean (4-10) (group 8, 5 mg once daily for 10 days, Time 24): 4.7 mg/dL | % sUA change (from baseline), Mean (4-12) (group 8, 5 mg once daily for 10 days, Time 48, mean of active subjects): −30.9% | Absolute sUA concentration, Mean (4-10) (group 8, 5 mg once daily for 10 days, Time 48): 4.1 mg/dL | % sUA change (from baseline), Mean (4-12) (group 8, 5 mg once daily for 10 days, Time 72, mean of active subjects): −33.7% | Absolute sUA concentration, Mean (4-10) (group 8, 5 mg once daily for 10 days, Time 72): 3.9 mg/dL | % sUA change (from baseline), Mean (4-12) (group 8, 5 mg once daily for 10 days, Time 96, mean of active subjects): −30.4% | Absolute sUA concentration, Mean (4-10) (group 8, 5 mg once daily for 10 days, Time 96): 4.1 mg/dL | % sUA change (from baseline), Mean (4-12) (group 8, 5 mg once daily for 10 days, Time 102, mean of active subjects): −37.8% | Absolute sUA concentration, Mean (4-10) (group 8, 5 mg once daily for 10 days, Time 102): 3.7 mg/dL | % sUA change (from baseline), Mean (4-12) (group 8, 5 mg once daily for 10 days, Time 108, mean of active subjects): −40.2% | Absolute sUA concentration, Mean (4-10) (group 8, 5 mg once daily for 10 days, Time 108): 3.5 mg/dL | % sUA change (from baseline), Mean (4-12) (group 8, 5 mg once daily for 10 days, Time 120, mean of active subjects): −30% | Absolute sUA concentration, Mean (4-10) (group 8, 5 mg once daily for 10 days, Time 120): 4.1 mg/dL | % sUA change (from baseline), Mean (4-12) (group 8, 5 mg once daily for 10 days, Time 144, mean of active subjects): −35.2% | Absolute sUA concentration, Mean (4-10) (group 8, 5 mg once daily for 10 days, Time 144): 3.8 mg/dL | % sUA change (from baseline), Mean (4-12) (group 8, 5 mg once daily for 10 days, Time 168, mean of active subjects): −38.1% | Absolute sUA concentration, Mean (4-10) (group 8, 5 mg once daily for 10 days, Time 168): 3.6 mg/dL | % sUA change (from baseline), Mean (4-12) (group 8, 5 mg once daily for 10 days, Time 192, mean of active subjects): −35.7% | Absolute sUA concentration, Mean (4-10) (group 8, 5 mg once daily for 10 days, Time 192): 3.8 mg/dL | % sUA change (from baseline), Mean (4-12) (group 8, 5 mg once daily for 10 days, Time 216, mean of active subjects): −33.4% | Absolute sUA concentration, Mean (4-10) (group 8, 5 mg once daily for 10 days, Time 216): 3.9 mg/dL | % sUA change (from baseline), Mean (4-12) (group 8, 5 mg once daily for 10 days, Time 222 (post dosing), mean of active subjects): −39.6% | Absolute sUA concentration, Mean (4-10) (group 8, 5 mg once daily for 10 days, Time 222 (post dosing)): 3.6 mg/dL | % sUA change (from baseline), Mean (4-12) (group 8, 5 mg once daily for 10 days, Time 228 (post dosing), mean of active subjects): −41.4% | Absolute sUA concentration, Mean (4-10) (group 8, 5 mg once daily for 10 days, Time 228 (post dosing)): 3.5 mg/dL | % sUA change (from baseline), Mean (4-12) (group 8, 5 mg once daily for 10 days, Time 240 (post dosing), mean of active subjects): −31.2% | Absolute sUA concentration, Mean (4-10) (group 8, 5 mg once daily for 10 days, Time 240 (post dosing)): 4.1 mg/dL | % sUA change (from baseline), Mean (4-12) (group 8, 5 mg once daily for 10 days, Time 246 (post dosing), mean of active subjects): −35.8% | Absolute sUA concentration, Mean (4-10) (group 8, 5 mg once daily for 10 days, Time 246 (post dosing)): 3.8 mg/dL | % sUA change (from baseline), Mean (4-12) (group 8, 5 mg once daily for 10 days, Time 252 (post dosing), mean of active subjects): −39.1% | Absolute sUA concentration, Mean (4-10) (group 8, 5 mg once daily for 10 days, Time 252 (post dosing)): 3.6 mg/dL | % sUA change (from baseline), Mean (4-12) (group 8, 5 mg once daily for 10 days, Time 264 (post dosing), mean of active subjects): −31.9% | Absolute sUA concentration, Mean (4-10) (group 8, 5 mg once daily for 10 days, Time 264 (post dosing)): 4.0 mg/dL | % sUA change (from baseline), Mean (4-12) (group 8, 5 mg once daily for 10 days, Time 270 (post dosing), mean of active subjects): −22.9% | Absolute sUA concentration, Mean (4-10) (group 8, 5 mg once daily for 10 days, Time 270 (post dosing)): 4.5 mg/dL | % sUA change (from baseline), Mean (4-12) (group 8, 5 mg once daily for 10 days, Time 288 (post dosing), mean of active subjects): −24.8% | Absolute sUA concentration, Mean (4-10) (group 8, 5 mg once daily for 10 days, Time 288 (post dosing)): 4.4 mg/dL | % sUA change (from baseline), Mean (4-12) (group 8, 5 mg once daily for 10 days, Time 312 (post dosing), mean of active subjects): −13.7% | Absolute sUA concentration, Mean (4-10) (group 8, 5 mg once daily for 10 days, Time 312 (post dosing)): 5.1 mg/dL
